Experimental data taken from PMC7614683, “A small molecule PI3Kα activator for cardioprotection and neuroregeneration” (Nature, 2023).

Tests used:
[1] = molecular target: T1, full length p110α/p85α (Homo sapiens, UniProt P42336); experiment: Surface plasmon resonance; type: binding; details: immobilized p110α/p85α; read-out: Kd for PI3Kα by surface plasmon resonance
T1 construct: Full-length human p110α was expressed either in a complex with full-length human p85α (for HTS, biochemistry and HDX-MS); 6xHis tag followed by TEV protease site (N); host or cells: Spodoptera frugiperda Sf9, baculovirus
Procedure: SPR was performed with a Biacore T200, using CM7-sensor chips (Cytiva). Both reference control and analyte channels were equilibrated in HBS-P (Cytiva) supplemented with 5% (v/v) DMSO at 20°C. Full length p110α/p85α was immobilised onto the chip surface via amide coupling using the supplied kit (Cytiva) to reach an RU value of approximately 25,000 RU. Serial dilutions (1:2) of 1938 starting from 500 μM were injected over the chip for 60 s at 30 μL/min, with a 60 sec dissociation time. The data were double-referenced to the response on a blank but similarly modified flow channel and a buffer-only injection was subtracted. Any differences in the DMSO concentrations between the sample and buffer were corrected using the in-built solvent correction protocol. After reference and buffer signal correction, sensogram data were fitted using Prism 9.4.1 (GraphPad Software Inc). The responses at equilibrium (Req) of the were then fitted to a 1:1 binding model with a linear non-specific phase to determine Kd: (1) Req=(CRmax/C+Kd)+DC+B where C is the analyte concentration and Rmax is the maximum response at saturation, D is a non-specific response and B is the background resonance. Data were replotted correcting for the linear non-specific response. The binding was performed in triplicate.

[2] = tested on: MEFs; experiment: Phosphoinositide quantification by mass spectrometry, MEFs; type: cell-based, mouse
Procedure: A549 cells (5.10^5) or wild-type MEFs (3.10^5) were plated in complete media onto 3.5 cm dishes or 60 mm dishes respectively for 24 h, prior to FCS-free starvation media for 16 h. MEFs, in addition, were supplemented with arachidonic acid in the FCS-free starvation media as previously described. […] Reactions were terminated in 600 μl ice-cold 1 M HCl and cells scraped and resuspended, then divided into two equal samples in eppendorfs. […] The data are shown as response ratios, calculated by normalizing the multiple reaction monitoring (MRM)-targeted lipid integrated response area to that of a known amount of relevant internal standard. To account for any cell input variability, PIP3 response ratios were normalized to C38:4-PI response ratios; while PI(3,4)P2 response ratios were normalised to PI(4,5)P2 response ratios. Data shown are mean ±SD for n ≥3, except for non-DMSO control in MEF PIP3 measurements where n=1.

[3] = tested on: PI3Kα-WT A549 cells; experiment: TIRF microscopy of PIP3 reporter, PI3Kα-WT A549; type: cell-based, human; details: 1938, then BYL719 0.5 μM
Procedure: Phosphoinositide reporters used were GFP-PH-ARNO^I303Ex2 (PIP3 reporter[41]) and mCherry-cPH-TAPP1x3 (PI(3,4)P2 reporter[41]). TIRF microscopy allows selective imaging of the small cell volume, including the plasma membrane, directly adjacent to the coverslip onto which cells have been seeded. HeLa or A549 cells were seeded in Matrigel-coated (Corning #354230; diluted in Opti-MEM at 1:50) 8-well chamber slides (glass bottom, 1.55 refractive index; Thermo Fisher Scientific #155409) at a density of 5,000 cells/well. […]
Image analyses of total reporter intensities were performed with the Fiji open source image analysis package. The region of interest (ROI) corresponding to the footprint of the individual cell across time points were defined using minimal intensity projection to select only pixels present across all time points, following prior subtraction of camera noise (rolling ball method, radius = 500 pixels) and xy drift correction, intensity levels over time were measured. […] All other quantifications were performed using the open source software R/RStudio. The values plotted in Fig. 3d (iii) represent mean±SEM, following signal scaling to minimum and maximum values of the normalised fluorescence intensity for each time point (Fn(t)). […]

[4] = tested on: MCF10A cells; experiment: pAKT S473 western blot, MCF10A; type: cell-based, human

T1 sequence (P42336 whole entry): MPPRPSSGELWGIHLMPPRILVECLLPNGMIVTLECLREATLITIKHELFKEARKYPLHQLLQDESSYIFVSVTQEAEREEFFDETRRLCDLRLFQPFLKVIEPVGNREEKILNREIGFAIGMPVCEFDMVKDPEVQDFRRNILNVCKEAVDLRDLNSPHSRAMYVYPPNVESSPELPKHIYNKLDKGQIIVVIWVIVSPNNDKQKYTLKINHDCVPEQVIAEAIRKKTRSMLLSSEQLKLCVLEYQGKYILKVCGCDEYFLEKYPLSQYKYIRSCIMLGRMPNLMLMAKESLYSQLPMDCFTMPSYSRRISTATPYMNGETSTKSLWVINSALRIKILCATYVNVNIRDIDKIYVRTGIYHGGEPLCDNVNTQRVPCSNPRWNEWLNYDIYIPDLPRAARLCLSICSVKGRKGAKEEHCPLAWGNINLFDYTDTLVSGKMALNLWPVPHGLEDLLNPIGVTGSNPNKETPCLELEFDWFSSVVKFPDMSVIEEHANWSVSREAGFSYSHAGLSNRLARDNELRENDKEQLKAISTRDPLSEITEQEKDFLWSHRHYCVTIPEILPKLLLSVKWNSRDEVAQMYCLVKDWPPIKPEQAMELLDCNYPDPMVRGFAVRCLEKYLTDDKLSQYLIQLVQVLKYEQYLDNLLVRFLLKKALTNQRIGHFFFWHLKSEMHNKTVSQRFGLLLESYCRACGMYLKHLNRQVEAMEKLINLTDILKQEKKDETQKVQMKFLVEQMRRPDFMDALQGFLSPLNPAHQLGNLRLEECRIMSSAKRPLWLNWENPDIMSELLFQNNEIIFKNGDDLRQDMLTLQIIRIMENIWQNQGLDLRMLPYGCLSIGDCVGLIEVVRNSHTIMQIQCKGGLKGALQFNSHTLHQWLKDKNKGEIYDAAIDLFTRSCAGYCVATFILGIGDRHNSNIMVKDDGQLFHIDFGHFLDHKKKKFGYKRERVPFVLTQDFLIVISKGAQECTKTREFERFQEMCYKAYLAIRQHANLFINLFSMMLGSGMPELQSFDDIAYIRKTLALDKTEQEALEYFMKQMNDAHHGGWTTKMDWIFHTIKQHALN
T1 sequence (P27986 whole entry partner): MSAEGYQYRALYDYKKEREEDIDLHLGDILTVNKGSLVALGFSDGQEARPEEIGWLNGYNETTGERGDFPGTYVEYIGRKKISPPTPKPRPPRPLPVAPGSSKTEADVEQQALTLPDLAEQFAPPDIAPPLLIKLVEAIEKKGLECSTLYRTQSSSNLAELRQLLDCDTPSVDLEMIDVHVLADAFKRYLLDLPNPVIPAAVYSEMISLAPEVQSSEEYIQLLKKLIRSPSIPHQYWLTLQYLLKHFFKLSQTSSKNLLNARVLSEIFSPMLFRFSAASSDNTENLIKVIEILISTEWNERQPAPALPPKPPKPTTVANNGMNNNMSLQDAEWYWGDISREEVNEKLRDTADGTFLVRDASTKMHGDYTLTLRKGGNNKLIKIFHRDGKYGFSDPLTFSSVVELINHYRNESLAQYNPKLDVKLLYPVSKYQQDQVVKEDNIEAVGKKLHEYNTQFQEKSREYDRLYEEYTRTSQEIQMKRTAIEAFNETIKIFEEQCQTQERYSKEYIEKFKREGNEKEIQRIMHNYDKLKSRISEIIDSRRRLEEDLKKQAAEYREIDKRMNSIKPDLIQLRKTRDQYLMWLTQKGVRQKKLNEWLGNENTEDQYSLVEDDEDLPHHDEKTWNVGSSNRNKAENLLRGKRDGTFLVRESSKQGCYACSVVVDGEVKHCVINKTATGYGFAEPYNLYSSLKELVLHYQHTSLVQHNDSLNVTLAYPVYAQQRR

CCN1CCN(c2ccc(Nc3cc(Nc4cccc5c4N(C(C)=O)CC5)ccn3)cc2)CC1 [Compound 1938]
Kd [1]: 36 ± 5 µM | time for which maximal PIP3 level is maintained [2]: up to 40 min | time of maximal PIP3 level [2]: 5 min | time to increased PIP3 levels [2]: ≤ 30 s | concentration at which PIP3 induction plateaus ([2]; 2 min): around 10 μM | PIP3 levels compared with insulin and PDGF ([2]; 2 min time point): comparable to those induced by insulin | EC50 ([2]; Mus musculus, 2 min, read-out: EC50 of PIP3 induction): ~5 µM | plasma membrane PIP3 (biosensor) [3]: acute plasma membrane-associated PIP3 production | pAKT^S473 increase [4]: BYL719-sensitive increase in pAKT^S473
